Results as given in patent US9486507B2, “Pro-coagulant compounds and methods of use thereof” (priority 2011, dated 2016).
Values joined by “and” are separate entries in the source; they are usually repeats but may differ in a detail not shown here. Equal values may be shown once.

Legend:
FVIIa [1] = biological target: T1, FVIIa (Homo sapiens, UniProt P08709); assay: FXa generation assay with human FVIIa; assay type: biochemical; conditions: absence of PL
T1 construct: The two-chain Factor VIIa is a polypeptide produced from FVII by hydrolysis of the Arg152-Ile153 peptide bond of FVII; purchased Haematologic Technologies
T1 sequence (P08709 61-212 limits assumed): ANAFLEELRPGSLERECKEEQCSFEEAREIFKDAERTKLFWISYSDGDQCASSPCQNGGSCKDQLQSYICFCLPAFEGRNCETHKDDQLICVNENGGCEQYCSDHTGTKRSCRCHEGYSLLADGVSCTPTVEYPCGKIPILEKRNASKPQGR
T1 sequence (P08709 213-466 limits assumed): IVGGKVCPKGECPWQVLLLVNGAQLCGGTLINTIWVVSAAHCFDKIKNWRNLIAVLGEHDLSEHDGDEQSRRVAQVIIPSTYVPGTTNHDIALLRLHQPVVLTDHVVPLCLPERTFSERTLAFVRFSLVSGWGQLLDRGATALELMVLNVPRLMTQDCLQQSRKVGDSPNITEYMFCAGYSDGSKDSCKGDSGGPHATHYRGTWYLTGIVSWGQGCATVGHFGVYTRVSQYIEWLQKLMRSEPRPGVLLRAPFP
Description: (§1) Similarly, in order to measure the catalytic activity of FVIIa, a FXa generation assay measuring the ability of the compounds of the present disclosure to enhance the catalytic activity of FVIIa was established. The difference between the two assays was that the final concentration of 10 nM hFIXa was replaced with 10 nM hFVIIa. The remaining reagents and assay procedures described above were unchanged.

FVIIa [2] = biological target: T1, FVIIa; assay: Km/Kcat of FVIIa for the substrate FX (FXa generation assay); assay type: biochemical; conditions: presence vs absence of compound 5
Description: as §1
To determine the Km and Kcat of FIXa or FVIIa for the substrate FX, the FXa generation assay described above was used with the following modifications. A single peptide concentration was tested (typically one that gave the maximal rate of FXa generation) and the concentration of all assay components was similar to that described above with the exception of FX. Reactions were set up with varying concentrations of FX ranging between 400 and 0.8 nM and the rates of FXa generation were determined for each peptide at the different FX concentrations tested as described above. For each peptide assayed, the data were fitted to the following equation that gives the Michaelis-Menten constant (Km) and the Vmax for FIXa or FVIIa: v=Vmax [FX]/Km+[FX], wherein v is the rate of FXa generation determined as described above. The catalytic constant (Kcat) was calculated by normalizing the Vmax to the enzyme concentration.

[3] = tested on: FVIII deficient human plasma; assay: Rotational thromboelastometry (ROTEM) in FVIII-deficient human plasma; assay type: biochemical
Description: Compounds of the present disclosure were tested by rotational thromboelastometry to evaluate coagulation parameters such as clotting time (CT), α-angle, clot formation time (CFT), maximum clot firmness (MCF). Briefly, lyophilized and citrated FVIII deficient human plasma (Siemens) was reconstituted with 1 mL of distilled water, allowed to stand for 20 min at RT and mixed well before use. Alternatively, an aliquot of citrated (non-lyophilized) FVIII deficient human plasma (HRF, George King, Precision Biologics, or real-time donors) was thawed for 10 min in a 37° C. water bath and when needed centrifuged at 2800 g for 5 min at 25° C. FVIII deficient plasma was spiked with lyophilized platelets (Helena Laboratories, final concentration 0.5×10^8 cells/ml) and compounds, FVIII, or both compound and FVIII. Dilutions of compounds of the present disclosure and controls, such as FVIII, were prepared in PBS (—Ca, —Mg). Next, 300 μl of the spiked plasma was transferred to a ROTEM cup already containing 20 μl of StarTEM (concentrated calcium chloride solution) and 20 μl of lipidated TF (American Diagnostica, final concentration 10 fM) or Kaolin (Sigma-Aldrich, final concentration 0.4 μg/ml) and recording was initiated. The cups were maintained at 37° C. during the testing.

platelets = assay: Platelet aggregation (aggregometer); assay type: cell-based
Text: ADP was used as a positive control for platelet aggregation.

FIXa = FIXa (Homo sapiens, UniProt P00740); assay: Heparin accelerated FIXa-AT complex formation assay; assay type: biochemical; set-up: purchased Haematologic Technologies; conditions: with heparin, 0 min
[4] = FVIII-deficient plasma (containing platelets), 10 μM
[5] = FVIII-deficient plasma, compound 5 2.5 μM + FVIIa-Fc 10 IU/mL
[6] = FVIII-deficient plasma, compound 5 2.5 μM + FVIIa-Fc 20 IU/mL
[7] = human HemA plasma, 5 μM, anti-FVIII pab +
[8] = human HemA plasma, 5 μM, anti-FVIII pab −
[9] = human HemA plasma, 10 μM, anti-FVIII pab +
[10] = human HemA plasma, 10 μM, anti-FVIII pab −

FIXa, sequence (P00740 47-191 limits assumed): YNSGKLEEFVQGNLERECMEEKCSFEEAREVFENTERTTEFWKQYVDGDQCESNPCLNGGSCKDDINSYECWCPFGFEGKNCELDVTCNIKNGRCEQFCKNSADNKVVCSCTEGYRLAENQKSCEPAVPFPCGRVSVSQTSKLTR
FIXa, sequence (P00740 227-461 limits assumed): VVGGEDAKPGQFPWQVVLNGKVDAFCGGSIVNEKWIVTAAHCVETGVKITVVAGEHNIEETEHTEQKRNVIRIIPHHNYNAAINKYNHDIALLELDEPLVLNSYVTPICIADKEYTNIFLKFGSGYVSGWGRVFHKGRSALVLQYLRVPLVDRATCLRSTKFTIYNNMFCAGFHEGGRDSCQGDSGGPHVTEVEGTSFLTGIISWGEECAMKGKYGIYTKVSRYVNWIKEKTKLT

For rRAPGKLTCLASYCWLFWTGIA [Compound 5], the “increase of FVIIa activity, % of control” value (FVIIa [1]) was “about 10%”, the “Δ kcat FVIIa” value (FVIIa [2]) was 2419 and the “Clotting time” value [3, 4] was 277 s and 298 s. The “α-angle, degrees” value [3, 4] was 34 degrees and 27 degrees, the Clotting time [3, 5] was 303.5 s and the α-angle [3, 5] was 38.5 degrees. For the same substance, the Clotting time [3, 6] was 115 s, the α-angle [3, 6] was 63 degrees and the “calcium dependence of procoagulant effect (clotting time)” value ([3]; compound 5 2.5 and 5 μM, 0 to about 16 mM calcium) was “sensitive to the calcium concentration”. The “Clotting time” value [3, 7] was 197 s and 194 s, the “α-angle, degrees” value [3, 7] was 48 degrees and 53 degrees and the “Clotting time” value [3, 8] was 154 s and 164 s. The “α-angle, degrees” value [3, 8] was 51 degrees and 58 degrees, the “Clotting time” value [3, 9] was 108 s and 110 s and the “α-angle, degrees” value [3, 9] was 67 degrees and 69 degrees. For the same substance, the “Clotting time” value [3, 10] was 101 s and 105 s, the “α-angle, degrees” value [3, 10] was 70 degrees and 68 degrees and the “effect on ADP-activated platelets” value (platelets; 30 μM) was “only a moderate effect”. For the same substance, the “induction of platelet aggregation” value (platelets; compound 5 about 30 μM, compound 22 10 μM and 30 μM) was “did not induce platelet aggregation”, the “effect on ADP-activated platelets” value (platelets; concentration of up to 10 μM) was “did not exhibit a significant effect” and the “% FIXa-AT complex formation” value (FIXa; Compound 5 0.1 μM) was 0%. For the same substance, the “% FIXa-AT complex formation” value (FIXa; Compound 5 1 μM) was 0% and the “% FIXa-AT complex formation” value (FIXa; Compound 5 10 μM) was 0%.
